Source: US10059713B2 (Takeda Pharmaceutical Company Limited, priority 2014, dated 2018)

target: human GPR43 (Homo sapiens (Human), UniProt O15552); assay: Ca-Flux functional assay: determination of agonist/positive allosteric modulator (PAM) activity; type: cell-based; details: CHO-K1 Gα16 cells stably expressing human GPR43; compound added with EC20 sodium acetate; intracellular Ca2+ by FLIPR; does not distinguish agonist from PAM
Description: Ca-Flux Functional Assay: Determination of Agonist/Positive Allosteric Modulator (PAM) Activity
GPR43 agonist/PAM activity was determined by measuring changes in intracellular calcium levels using a Ca^2+ sensitive fluorescent dye. The changes in fluorescent signal were monitored by FLIPR (manufactured by Molecular Devices). GPR43 mediated increases in intracellular Ca^2+ concentration were readily detected upon activation with sodium acetate. Prior to the assay (24 hours), CHO-K1 Gα16 cells stably expressing human GPR43 were-seeded in cell culture medium in black, clear-bottom 384-well plates (Corning Inc) and grown overnight at 37° C., 5% CO2. On the day of the assay, cell culture media was removed and cells were loaded with Calcium 5 Dye (Molecular Devices) diluted in HBSS containing 25 mM HEPES, 2.5 mM Probenecid, 0.1% BSA for 1 hour at 37° C., 5% CO2. 10 point half log concentration response curves of sodium acetate from 10 mM were conducted prior to the testing of compounds to calculate the sodium acetate concentration that produces 20% of the maximal response (EC20). Test compounds (at 10 point half log concentration response curves from 10 μM) were added in the presence of sodium acetate to achieve a final concentration that produces approximately 20% maximal response as calculated from the previous experiment. The changes in fluorescent signal were monitored by FLIPR upon addition of the compound/EC20 sodium acetate mix. The EC50 values were determined from ten point concentration response curves. Curves were generated using the average of two wells for each data point.
The above assay detects both GPR43 receptor agonists and positive allosteric modulators of the GPR43 receptor, without distinguishing between the two. Activity in either regard is useful in the treatment of conditions associated with GPR43 receptor activity.

human GPR43, sequence (O15552 whole entry): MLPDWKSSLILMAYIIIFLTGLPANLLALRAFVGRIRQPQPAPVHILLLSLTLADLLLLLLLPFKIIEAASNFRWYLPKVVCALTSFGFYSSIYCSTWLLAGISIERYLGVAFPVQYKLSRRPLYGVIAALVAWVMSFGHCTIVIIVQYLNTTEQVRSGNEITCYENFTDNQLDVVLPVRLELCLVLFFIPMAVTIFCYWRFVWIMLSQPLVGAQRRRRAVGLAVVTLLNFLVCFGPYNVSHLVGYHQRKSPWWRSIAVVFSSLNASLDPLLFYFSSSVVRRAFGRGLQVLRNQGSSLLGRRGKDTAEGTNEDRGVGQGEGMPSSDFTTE

SMILES | EC50 [nM]
Nc1[nH]c2c(N3CCC(F)(F)CC3)ncnc2c1S(=O)(=O)c1ccccc1F [Example 74, 4-(4,4-difluoropiperidin-1-yl)-7-(2-fluorobenzenesulfonyl)-5H-pyrrolo[3,2-d]pyrimidin-6-amine] | 9
C[C@@H]1CN(c2ncnc3c(S(=O)(=O)c4ccccc4)c(N)[nH]c23)C[C@H](C)O1 [Example 75, 7-(benzenesulfonyl)-4-[(2R,6S)-2,6-dimethylmorpholin-4-yl]-5H-pyrrolo[3,2-d]pyrimidin-6-amine] | 14
CC1CN(c2ncnc3c(S(=O)(=O)c4ccccc4)c(N)[nH]c23)C(C)CO1 (centres unmarked) [Example 85, 7-(benzenesulfonyl)-4-(2,5-dimethylmorpholin-4-yl)-5H-pyrrolo[3,2-d]pyrimidin-6-amine] | 19
C[C@H]1CN(c2ncnc3c(S(=O)(=O)c4ccccc4)c(N)[nH]c23)CCO1 [Example 86, 7-(benzenesulfonyl)-4-[(2S)-2-methylmorpholin-4-yl]-5H-pyrrolo[3,2-d]pyrimidin-6-amine] | 19
Nc1[nH]c2c(C3CCCCC3)ncnc2c1S(=O)(=O)c1ccccc1F [Example 89, 4-cyclohexyl-7-(2-fluorobenzenesulfonyl)-5H-pyrrolo[3,2-d]pyrimidin-6-amine] | 11
CN(Cc1cccc(Cl)c1)c1ncnc2c(S(=O)(=O)c3ccccc3)c(N)[nH]c12 [Example 90, 7-(benzenesulfonyl)-4-N-[(3-chlorophenyl)methyl]-4-N-methyl-5H-pyrrolo[3,2-d]pyrimidine-4,6-diamine] | 41
CCN(CC)c1ncnc2c(S(=O)(=O)c3ccccc3)c(N)[nH]c12 [Example 94, 7-(benzenesulfonyl)-4-N,4-N-diethyl-5H-pyrrolo[3,2-d]pyrimidine-4,6-diamine] | 61
CN(Cc1ccccn1)c1ncnc2c(S(=O)(=O)c3ccccc3)c(N)[nH]c12 [Example 95, 7-(benzenesulfonyl)-4-N-methyl-4-N-(pyridin-2-ylmethyl)-5H-pyrrolo[3,2-d]pyrimidine-4,6-diamine] | 7130
CN(CC(F)F)c1ncnc2c(S(=O)(=O)c3ccccc3)c(N)[nH]c12 [Example 96, 7-(benzenesulfonyl)-4-N-(2,2-difluoroethyl)-4 N-methyl-5H-pyrrolo[3,2-d]pyrimidine-4,6-diamine] | 162
CCN(C)c1ncnc2c(S(=O)(=O)c3ccccc3)c(N)[nH]c12 [Example 97, 7-(benzenesulfonyl)-4-N-ethyl-4-N-methyl-5H-pyrrolo[3,2-d]pyrimidine-4,6-diamine] | 447
C=C(C)c1cncc2c(S(=O)(=O)c3ccccc3)c(N)[nH]c12 [Example 100, 3-(benzenesulfonyl)-7-(prop-1-en-2-yl)-1H-pyrrolo[3,2-c]pyridin-2-amine] | 145
CC(C)CC1CN(c2ncnc3c(S(=O)(=O)c4ccccc4)c(N)[nH]c23)CCO1 (centres unmarked) [Example 101, 7-(benzenesulfonyl)-4-[2-(2-methylpropyl)morpholin-4-yl]-5H-pyrrolo[3,2-d]pyrimidin-6-amine] | 31
Nc1[nH]c2c(N3CCOC4(CCCC4)C3)ncnc2c1S(=O)(=O)c1ccccc1 [Example 102, 7-(benzenesulfonyl)-4-{6-oxa-9-azaspiro[4.5]decan-9-yl}-5H-pyrrolo[3,2-d]pyrimidin-6-amine] | 18

The remaining molecules from weak to strong by EC50, led by results:

EC50 [nM] | SMILES
9510 | CN(CC1OCCO1)c1ncnc2c(S(=O)(=O)c3ccccc3)c(N)[nH]c12 [Example 93, 7-(benzenesulfonyl)-4-N-(1,3-dioxolan-2-ylmethyl)-4-N-methyl-5H-pyrrolo[3,2-d]pyrimidine-4,6-diamine]
4670 | Cc1cc(CN(C)c2ncnc3c(S(=O)(=O)c4ccccc4)c(N)[nH]c23)no1 [Example 99, 7-(benzenesulfonyl)-4-N-methyl-4-N-[(5-methyl-1,2-oxazol-3-yl)methyl]-5H-pyrrolo[3,2-d]pyrimidine-4,6-diamine]
2340 | Nc1[nH]c2c(C3=CCCCC3)ncnc2c1S(=O)(=O)C1CCOC1 (centres unmarked) [Example 78, 4-(cyclohex-1-en-1-yl)-7-(oxolane-3-sulfonyl)-5H-pyrrolo[3,2-d]pyrimidin-6-amine]
1400 | CN(CC1CCCCO1)c1ncnc2c(S(=O)(=O)c3ccccc3)c(N)[nH]c12 (centres unmarked) [Example 91, 7-(benzenesulfonyl)-4-N-methyl-4-N-(oxan-2-ylmethyl)-5H-pyrrolo[3,2-d]pyrimidine diamine]
1210 | COCC1CN(c2ncnc3c(S(=O)(=O)c4ccccc4)c(N)[nH]c23)CCO1 (centres unmarked) [Example 81, 7-(benzenesulfonyl)-4-[2-(methoxymethyl)morpholin-4-yl]-5H-pyrrolo[3,2-d]pyrimidin-6-amine]
1150 | Nc1[nH]c2c(N3CCCOCC3)ncnc2c1S(=O)(=O)c1ccccc1 [Example 82, 7-(benzenesulfonyl)-4-(1,4-oxazepan-4-yl)-5H-pyrrolo[3,2-d]pyrimidin-6-amine]
648 | CN(c1ncnc2c(S(=O)(=O)c3ccccc3)c(N)[nH]c12)C1CC1 [Example 98, 7-(benzenesulfonyl)-4-N-cyclopropyl-4-N-methyl-5H-pyrrolo[3,2-d]pyrimidine-4,6-diamine]
628 | Nc1[nH]c2c(Br)cncc2c1S(=O)(=O)c1ccccc1 [Example 77, 3-(benzenesulfonyl)-7-bromo-1H-pyrrolo[3,2-c]pyridin-2-amine]
209 | COc1ccccc1CN(C)c1ncnc2c(S(=O)(=O)c3ccccc3)c(N)[nH]c12 [Example 92, 7-(benzenesulfonyl)-4-N-[(2-methoxyphenyl)methyl]-4-N-methyl-5H-pyrrolo[3,2-d]pyrimidine-4,6-diamine]
135 | COc1ccc(S(=O)(=O)c2c(N)[nH]c3c(-c4ccccc4)ncnc23)cc1 [Example 76, 7-(4-methoxybenzenesulfonyl)-4-phenyl-5H-pyrrolo[3,2-d]pyrimidin-6-amine]
133 | Nc1[nH]c2c(N3CCOC(C4CC4)C3)ncnc2c1S(=O)(=O)c1ccccc1 (centres unmarked) [Example 80, 7-(benzenesulfonyl)-4-(2-cyclopropylmorpholin-4-yl)-5H-pyrrolo[3,2-d]pyrimidin-6-amine]
100 | CCN(CC1CCCCC1)c1ncnc2c(S(=O)(=O)c3ccccc3)c(N)[nH]c12 [Example 83, 7-(benzenesulfonyl)-4-N-(cyclohexylmethyl)-4-N-ethyl-5H-pyrrolo[3,2-d]pyrimidine-4,6-diamine]
40 | CCC1CN(c2ncnc3c(S(=O)(=O)c4ccccc4)c(N)[nH]c23)CCO1 (centres unmarked) [Example 79, 7-(benzenesulfonyl)-4-(2-ethylmorpholin-4-yl)-5H-pyrrolo[3,2-d]pyrimidin-6-amine]
34 | C[C@@H]1CN(c2ncnc3c(S(=O)(=O)c4ccccc4)c(N)[nH]c23)C[C@@H](C)O1 [Example 87, 7-(benzenesulfonyl)-4-[(2R,6R)-2,6-dimethylmorpholin-4-yl]-5H-pyrrolo[3,2-d]pyrimidin-6-amine]
29 | CC1(C)CN(c2ncnc3c(S(=O)(=O)c4ccccc4)c(N)[nH]c23)CCO1 [Example 84, 7-(benzenesulfonyl)-4-(2,2-dimethylmorpholin-4-yl)-5H-pyrrolo[3,2-d]pyrimidin-6-amine]
21 | Nc1[nH]c2c(C3CCCC3)ncnc2c1S(=O)(=O)c1ccccc1F [Example 88, 4-cyclopentyl-7-(2-fluorobenzenesulfonyl)-5H-pyrrolo[3,2-d]pyrimidin-6-amine]
